Measurements as given in US20240368173A1, “TRICYCLIC GPR65 MODULATORS” (PATHIOS THERAPEUTICS LIMITED, priority 2021, published 2024).

molecular target: human recombinant GPR65 (Homo sapiens, UniProt Q8IYL9); test: Human GPR65 cAMP HTRF antagonist assay; format: cell-based; conditions: not given
Outline: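 1321N1 astrocytoma cells stably expressing hrGPR65, with IBMX and EDTA, were preincubated with compound 30 min at room temperature, then acid-activated at assay pH 7.2 (control pH 7.9) for 30 min. cAMP read by HTRF (665/620 nm ratio); IC50 from 4-parameter fit normalised to high/low controls.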

Chain of human recombinant GPR65 (Q8IYL9 whole entry): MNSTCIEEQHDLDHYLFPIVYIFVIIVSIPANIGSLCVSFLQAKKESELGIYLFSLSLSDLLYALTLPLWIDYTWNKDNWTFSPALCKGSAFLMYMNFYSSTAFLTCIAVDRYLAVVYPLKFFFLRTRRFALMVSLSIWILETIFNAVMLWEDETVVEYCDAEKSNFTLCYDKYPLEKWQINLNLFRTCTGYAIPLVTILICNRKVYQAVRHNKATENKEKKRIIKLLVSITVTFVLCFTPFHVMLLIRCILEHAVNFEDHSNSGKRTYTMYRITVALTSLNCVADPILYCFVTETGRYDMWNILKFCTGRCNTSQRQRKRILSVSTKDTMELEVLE

SMILES | IC50 [nM]
Cc1cnccc1-c1cc(F)c(NC(=O)N2[C@H]3CC[C@@H]2c2n[nH]c(=O)cc2C3)cc1Cl [Compound 125, (6S,9R)-N-(5-Chloro-2-fluoro-4-(3-methylpyridin-4-yl)phenyl)-3-oxo-3,5,6,7,8,9-hexahydro-2H-6,9-epiminocyclohepta[c]pyridazine-10-carboxamide] | < 500
O=C(Nc1cc(Cl)c(-c2cc(F)cnc2F)cc1F)N1[C@H]2CC[C@@H]1c1ccnc(F)c1C2 [Compound 260, (5R,8S)-N-(5-Chloro-4-(2,5-difluoropyridin-3-yl)-2-fluorophenyl)-1-fluoro-6,7,8,9-tetrahydro-5H-5,8-epiminocyclohepta[c]pyridine-10-carboxamide] | < 500
O=C(Nc1cc(Cl)c(-c2cncc(F)c2)cc1F)N1[C@H]2CC[C@@H]1c1c[nH]c(=O)cc1C2 [Compound 201, (6S,9R)-N-(5-Chloro-2-fluoro-4-(5-fluoropyridin-3-yl)phenyl)-3-oxo-3,5,6,7,8,9-hexahydro-2H-6,9-epiminocyclohepta[c]pyridine-10-carboxamide] | < 500
N#Cc1ccc(-c2cc(F)c(NC(=O)N3[C@H]4CC[C@@H]3c3n[nH]c(=O)cc3C4)cc2Cl)cn1 [Compound 124, (6S,9R)-N-(5-Chloro-4-(6-cyanopyridin-3-yl)-2-fluorophenyl)-3-oxo-3,5,6,7,8,9-hexahydro-2H-6,9-epiminocyclohepta[c]pyridazine-10-carboxamide] | < 500
O=C(Nc1cc(Cl)c(C2CC2)cc1F)N1[C@H]2CC[C@@H]1c1n[nH]c(=O)cc1C2 [Compound 42, (6S,9R)-N-(5-Chloro-4-cyclopropyl-2-fluorophenyl)-3-oxo-3,5,6,7,8,9-hexahydro-2H-6,9-epiminocyclohepta[c]pyridazine-10-carboxamide] | < 500
O=C(Nc1cc(Cl)c(C(F)(F)F)cc1F)N1[C@H]2CC[C@@H]1C(F)(F)c1c2ccnc1F [Compound 228, (5S,8R)-N-(5-Chloro-2-fluoro-4-(trifluoromethyl)phenyl)-1,9,9-trifluoro-6,7,8,9-tetrahydro-5H-5,8-epiminocyclohepta[c]pyridine-10-carboxamide] | 500 to 5000
O=C(Nc1cc(Cl)c(-c2ccc(OC3CCCC3)nc2)cc1F)N1[C@H]2CC[C@@H]1c1n[nH]c(=O)cc1C2 [Compound 336, (6S,9R)-N-(5-Chloro-4-(6-(cyclopentyloxy)pyridin-3-yl)-2-fluorophenyl)-3-oxo-3,5,6,7,8,9-hexahydro-2H-6,9-epiminocyclohepta[c]pyridazine-10-carboxamide] | < 500
N#Cc1cc(NC(=O)N2[C@H]3CC[C@@H]2c2n[nH]c(=O)cc2C3)c(F)cc1Cl [Compound 112, (6S,9R)-N-(4-Chloro-5-cyano-2-fluorophenyl)-3-oxo-3,5,6,7,8,9-hexahydro-2H-6,9-epiminocyclohepta[c]pyridazine-10-carboxamide] | < 500
COc1cnc(F)c2c1[C@H]1CC[C@@H](C2)N1C(=O)Nc1cc(Cl)c(C(F)(F)F)cc1F [Compound 97, (5R,8S)-N-(5-Chloro-2-fluoro-4-(trifluoromethyl)phenyl)-1-fluoro-4-methoxy-6,7,8,9-tetrahydro-5H-5,8-epiminocyclohepta[c]pyridine-10-carboxamide] | < 500
O=C(Nc1cc(Cl)c(C2CC2)cc1F)N1[C@H]2CC[C@@H]1c1c[nH]c(=O)cc1C2 [Compound 82, (6S,9R)-N-(5-Chloro-4-cyclopropyl-2-fluorophenyl)-3-oxo-3,5,6,7,8,9-hexahydro-2H-6,9-epiminocyclohepta[c]pyridine-10-carboxamide] | < 500
O=C(Nc1cc(Cl)c(-c2ccc(OCC3CC3)nc2)cc1F)N1[C@H]2CC[C@@H]1c1n[nH]c(=O)cc1C2 [Compound 318, (6S,9R)-N-(5-Chloro-4-(6-(cyclopropylmethoxy)pyridin-3-yl)-2-fluorophenyl)-3-oxo-3,5,6,7,8,9-hexahydro-2H-6,9-epiminocyclohepta[c]pyridazine-10-carboxamide] | < 500
COc1ncc(-c2cc(F)c(NC(=O)N3[C@H]4CC[C@@H]3c3ccnc(F)c3C4)cc2Cl)cc1F [Compound 219, (5R,8S)-N-(5-Chloro-2-fluoro-4-(5-fluoro-6-methoxypyridin-3-yl)phenyl)-1-fluoro-6,7,8,9-tetrahydro-5H-5,8-epiminocyclohepta[c]pyridine-10-carboxamide] | < 500
COc1ccc(-c2cc(F)c(NC(=O)N3[C@H]4CC[C@@H]3c3ccnc(F)c3C4)cc2Cl)c(F)n1 [Compound 214, (5R,8S)-N-(5-Chloro-2-fluoro-4-(2-fluoro-6-methoxypyridin-3-yl)phenyl)-1-fluoro-6,7,8,9-tetrahydro-5H-5,8-epiminocyclohepta[c]pyridine-10-carboxamide] | < 500
O=C(Nc1cc(Cl)c(-c2cncc(C(F)F)c2)cc1F)N1[C@H]2CC[C@@H]1c1n[nH]c(=O)cc1C2 [Compound 333, (6S,9R)-N-(5-Chloro-4-(5-(difluoromethyl)pyridin-3-yl)-2-fluorophenyl)-3-oxo-3,5,6,7,8,9-hexahydro-2H-6,9-epiminocyclohepta[c]pyridazine-10-carboxamide] | < 500
O=C(Nc1cc(Cl)c(-c2ccccc2)cc1F)N1[C@H]2CC[C@@H]1c1ccnc(F)c1C2 [Compound 250, (5R,8S)-N-(2-Chloro-5-fluoro-[1,1′-biphenyl]-4-yl)-1-fluoro-6,7,8,9-tetrahydro-5H-5,8-epiminocyclohepta[c]pyridine-10-carboxamide] | < 500
O=C(Nc1cc(Cl)c(-c2ccncc2F)cc1F)N1[C@H]2CC[C@@H]1c1n[nH]c(=O)cc1C2 [Compound 138, (6S,9R)-N-(5-Chloro-2-fluoro-4-(3-fluoropyridin-4-yl)phenyl)-3-oxo-3,5,6,7,8,9-hexahydro-2H-6,9-epiminocyclohepta[c]pyridazine-10-carboxamide] | < 500
CC(C)COc1ccc(-c2cc(F)c(NC(=O)N3[C@H]4CC[C@@H]3c3n[nH]c(=O)cc3C4)cc2Cl)cn1 [Compound 319, (6S,9R)-N-(5-Chloro-2-fluoro-4-(6-isobutoxypyridin-3-yl)phenyl)-3-oxo-3,5,6,7,8,9-hexahydro-2H-6,9-epiminocyclohepta[c]pyridazine-10-carboxamide] | < 500
CCOc1ccc(-c2cc(F)c(NC(=O)N3[C@H]4CC[C@@H]3c3n[nH]c(=O)cc3C4)cc2Cl)cn1 [Compound 208, (6S,9R)-N-(5-Chloro-4-(6-ethoxypyridin-3-yl)-2-fluorophenyl)-3-oxo-3,5,6,7,8,9-hexahydro-2H-6,9-epiminocyclohepta[c]pyridazine-10-carboxamide] | < 500
O=C(Nc1cc(Cl)c(-c2ccc3csnc3c2)cc1F)N1[C@H]2CC[C@@H]1c1n[nH]c(=O)cc1C2 [Compound 270, (6S,9R)-N-(4-(Benzo[c]isothiazol-6-yl)-5-chloro-2-fluorophenyl)-3-oxo-3,5,6,7,8,9-hexahydro-2H-6,9-epiminocyclohepta[c]pyridazine-10-carboxamide] | < 500
O=C(Nc1cc(Cl)c(-c2cnc(F)nc2)cc1F)N1[C@H]2CC[C@@H]1c1n[nH]c(=O)cc1C2 [Compound 178, (6S,9R)-N-(5-Chloro-2-fluoro-4-(2-fluoropyrimidin-5-yl)phenyl)-3-oxo-3,5,6,7,8,9-hexahydro-2H-6,9-epiminocyclohepta[c]pyridazine-10-carboxamide] | < 500
CCOc1ccc(-c2cc(F)c(NC(=O)N3[C@H]4CC[C@@H]3c3ccnc(F)c3C4)cc2Cl)cn1 [Compound 263, (5R,8S)-N-(5-Chloro-4-(6-ethoxypyridin-3-yl)-2-fluorophenyl)-1-fluoro-6,7,8,9-tetrahydro-5H-5,8-epiminocyclohepta[c]pyridine-10-carboxamide] | < 500
O=C(Nc1cc(F)c(-c2ccc(F)nc2)cc1F)N1[C@H]2CC[C@@H]1c1ccnc(F)c1C2 [Compound 242, (5R,8S)-N-(2,5-Difluoro-4-(6-fluoropyridin-3-yl)phenyl)-1-fluoro-6,7,8,9-tetrahydro-5H-5,8-epiminocyclohepta[c]pyridine-10-carboxamide] | < 500

same assay, conditions: 1321N1-hrGPR65 cells, cAMP HTRF, assay pH 7.2; read-out: hGPR65 IC50 (Activity of selected compounds according to the invention)

SMILES | IC50 [nM]
CN(C(=O)N1C2CCC1c1ccc(=O)n(C)c1C2)c1cc(Cl)c(Cl)cc1F (racemic) [Compound 288, (±)—N-(4,5-Dichloro-2-fluorophenyl)-N,1-dimethyl-2-oxo-2,5,6,7,8,9-hexahydro-1H-5,8-epiminocyclohepta[b]pyridine-10-carboxamide] | > 5000
CS(=O)(=O)c1ccc(-c2cc(F)c(NC(=O)N3[C@H]4CC[C@@H]3c3n[nH]c(=O)cc3C4)cc2Cl)cn1 [Compound 180, (6S,9R)-N-(5-Chloro-2-fluoro-4-(6-(methylsulfonyl)pyridin-3-yl)phenyl)-3-oxo-3,5,6,7,8,9-hexahydro-2H-6,9-epiminocyclohepta[c]pyridazine-10-carboxamide] | 500 to 5000
O=C(Nc1cc(Cl)c(Cl)cc1F)N1[C@@H]2CC[C@H]1c1n[nH]c(=O)cc1C2 [Compound 21, (6R,9S)-N-(4,5-Dichloro-2-fluorophenyl)-3-oxo-3,5,6,7,8,9-hexahydro-2H-6,9-epiminocyclohepta[c]pyridazine-10-carboxamide] | 500 to 5000
CC1(c2ccc(NC(=O)N3[C@H]4CC[C@@H]3c3ccnc(F)c3C4)cc2)COC1 [Compound 61, (5R,8S)-1-Fluoro-N-(4-(3-methyloxetan-3-yl)phenyl)-6,7,8,9-tetrahydro-5H-5,8-epiminocyclohepta[c]pyridine-10-carboxamide] | > 5000
COCCOc1cnc(F)c2c1[C@H]1CC[C@@H](C2)N1C(=O)Nc1cc(Cl)c(Cl)cc1F [Compound 283, (5R,8S)—N-(4,5-Dichloro-2-fluorophenyl)-1-fluoro-4-(2-methoxyethoxy)-6,7,8,9-tetrahydro-5H-5,8-epiminocyclohepta[c]pyridine-10-carboxamide] | 500 to 5000
CC(C)Oc1ccc(NC(=O)N2C3CCC2c2n[nH]c(=O)cc2C3)cc1Cl (racemic) [Compound 13, (±)-N-(3-Chloro-4-isopropoxyphenyl)-3-oxo-3,5,6,7,8,9-hexahydro-2H-6,9-epiminocyclohepta[c]pyridazine-10-carboxamide] | 500 to 5000
